A short description of series [1]: Metabolism in liver microsomes (monkey). Type of series: in vitro ADME. Here is the method: Liver microsomes from human, rat dog and monkey were thawed and diluted to a final concentration of 1 mg/mL in 100 mM potassium phosphate buffer (pH 7.4). Test compounds and controls were prepared at 100× final concentration of 1 μM in 1:1 acetonitrile:water (v/v) and aliquoted into microsomal mixture. The mixture was preincubated at 37° C. in a shaking water bath for 10 minutes. The incubations were performed in duplicate. Three controls were included in the incubations; warfarin, phenacetin, and verapamil. After the preincubation, the reaction was initiated with NADPH at a final concentration of 1 mM. At 0, 5, 15, 30, 45 and 60 minutes, 25 μL of sample was removed and quenched with 300 μL of acetonitrile containing internal standard (Telmisartan). The samples were vortexed for 5 minutes at 1200 rpm and then centrifuged at 4000 rpm for 10 min. A 100 μL aliquot of supernatant was diluted three-fold with water and injected on an Exion LC 4500 Triple Quad LC-MS/MS system. Results were reported as a percentage of parent remaining and was calculated from peak area ratios of test compound remaining after at each time point and compared to time zero incubation.
On the technique in general: Microsomes from liver hold many membrane-bound enzymes, among them those of drug oxidation.

The nature of series [2]: IV pharmacokinetics in dog. Type of series: in vivo, Beagle Dogs. The procedure:
PK was investigated in male CD1 mice, Wistar Han Rats, Cynomolgus monkeys, and Beagle Dogs. Two groups of animals (N=3 per group) received test compound either as an intravenous (IV) dose (1 mg/kg) or by oral gavage (5 mg/kg solution and suspension). Drug was formulated in 90% PEG 400, 10% ethanol for IV administration and in 90% PEG400, 5% ethanol for PO administration. Blood samples were collected at 0.167, 0.25, 0.5, 0.75, 1, 2, 3, 5, 7, 24, 48, 72 and 96 h post dose for IV; 0.25, 0.5, 0.75, 1, 2, 3, 5, 7, 24, 48, 72 and 96 h post dose for oral. Blood samples were collected into K3EDTA tubes and centrifuged at 1500 to 2000×g to obtain plasma. Plasma samples were stored at −20° C. until analysis by LC-MS/MS. All in vivo samples were injected on an Exion LC 4500 Triple Quad™ LC-MS/MS system where the column was maintained at 60° C. and the flow rate was 0.6 mL/min. All LC-MS/MS analysis parameters are captured electronically in the raw data files. Rat IV, Dog IV, Monkey IV, and Monkey PO PK samples were analyzed by General Analysis Method A. Mouse IV, Mouse PO, and Dog PO PK samples were analyzed by General Analysis Method B. Rat PO samples were analyzed by General Analysis Method C.
The PK parameters were obtained by non-compartmental analysis of plasma concentration vs time data (Phoenix WinNonlin v8.1). The peak concentration (Cmax) and time for Cmax (Tmax) were recorded directly from experimental observations. The area under the curve from time zero to the last sampling time [AUC0-T] and the area under the curve from time zero to infinity [AUCINF] were calculated using the linear-log trapezoidal rule. The total plasma clearance (CLTp), steady-state volume of distribution (VSS), apparent elimination half-life (T-HALF), and mean residence time (MRT) were estimated after IV administration. Estimations of AUC and T-HALF were made using a minimum of three timepoints with quantifiable concentrations. The absolute oral bioavailability (F) was estimated as the ratio of dose-normalized AUC values following oral and IV doses.

The subject of a further series is CYP2B6. Put plainly: Cytochrome P450 (CYP2B6) induction in cryopreserved human hepatocytes, mRNA fold-change method. Type of series: in vitro ADME. Conditions: hepatocytes from three donors, 0.12 to 30 μM, 48 hours; Example 1 all three donors, Example 60.2 2 of 3 donors. The procedure: Following the guidance of the FDA (“In Vitro Metabolism- and Transporter-Mediated Drug-Drug Interaction Studies Guidance for Industry”), the potential of Example 1 and Example 60.2 to induce CYP2B6 expression was tested using hepatocytes from the same three individual donors (rather than pooled donors), and changes in enzyme mRNA levels were evaluated using the “fold-change method”. In this test a fold-change in mRNA levels less than 2-fold is considered a negative finding, while a change 2-fold is considered a positive finding.
Compounds were tested in a CYP induction assay using inducible cryopreserved human primary hepatocytes from three donors to determine the potential to cause induction (as measured by an increase in mRNA transcription) of CYP2B6. […] At the end of the incubation, the integrity of cell monolayers, cell density and viability were evaluated to assess cytotoxicity effects. […] Samples were then used in reverse transcription polymerase chain reactions (RT-PCR) to quantify the amount of specific mRNA species encoding the human CYP2B6 gene.
The induction potential of test compounds and controls was compared to known CYP2B6 inducer Phenobarbital (1000 μM). The results of this assay are expressed as fold induction. […] The cytotoxicity was also assessed in parallel to avoid false positive CYP induction results due to cytotoxicity. […]

The mark [3] stands for this setting: Beagle, plasma, Dog, IV 1 mg/kg.

As for `Cn1nc(NS(C)(=O)=O)c2c(Cl)ccc(-n3c([C@H](Cc4cc(F)cc(F)c4)NC(=O)Cn4nc(C(F)F)c5c4C(F)(F)[C@@H]4C[C@H]54)nc4nc(OCCC(F)(F)F)ccc4c3=O)c21` (atropisomer, axis not shown; (P)) [Example 1, N—((S)-1-((3P)-3-(4-chloro-1-methyl-3-(methylsulfonamido)-1H-indazol-7-yl)-4-oxo-7-(3,3,3-trifluoropropoxy)-3,4-dihydropyrido[2,3-d]pyrimidin-2-yl)-2-(3,5-difluorophenyl)ethyl)-2-((3bS,4aR)-3-(difluoromethyl)-5,5-difluoro-3b,4,4a,5-tetrahydro-1H-cyclopropa[3,4]cyclopenta[1,2-c]pyrazol-1-yl)acetamide], the “stability in monkey liver microsomes relative to Example 60.2” value in series [1] (Example 1 versus Example 60.2) is reported as “at least two times more stable”. Further, the half-life at 1 μM in series [1] (monkey, liver microsomes, pH 7.4, 1 μM compound, 1 mg/mL microsomes, NADPH, read-out: Monkey liver microsome T1/2) is greater than 2 h. In series [2] (setting [3]), this compound gave a clearance of 1.68 mL/min/kg and a half-life of 8.6 h. Besides, the Vd in series [2] (Beagle, plasma, Dog, IV 1 mg/kg, read-out: Vss) came out at 0.83 L/kg. In addition, in series [2] (dog, IV), the “clearance improved relative to Example 60.2” value is given as 4.9 fold and the “half-life in circulation higher than Example 60.2” value is 3.4 fold. The “CYP2B6 induction finding (mRNA fold-change method)” value in the series with CYP2B6 is given as “negative finding (a fold-change in mRNA levels less than 2-fold is considered a negative finding)”.

One may read the clearance as the volume of plasma or blood freed of the substance per unit of time.

The values above are taken from patent US12129255B2, “Pyrido [2,3-d]pyrimidine derivatives as inhibitors of human immunodeficiency virus replication” (VIIV HEALTHCARE UK (No. 5) LIMITED, priority 2019, dated 2024).
